Measurements published in US20240158446A1, “CYCLIC COMPOUND HAVING SELECTIVE INHIBITORY ACTION ON KRAS OVER HRAS AND NRAS” (CHUGAI SEIYAKU KABUSHIKI KAISHA, priority 2021, published 2024).
Read-outs that look alike come from different tables or passages of the source. *1 amine or outer side, *2 acyl side, *3 side chain or, on linkers, in order; H or OH if unused. Where a SMILES comes first, the peptide text is derived from it. Bridges are numbered along the chain shown (N, C = ends). [ ]: non-standard residue; d: D form. The star is where a group is joined. hPhe(3,5-F2-4-CF3) = N[C@@H](CCc1cc(F)c(C(F)(F)F)c(F)c1)C(=O)O; NPrPhe(4-CF3) = CCCN[C@@H](Cc1ccc(C(F)(F)F)cc1)C(=O)O; X29 = CN([C@@H](CCCC=[*:3])C(=O)[*:2])[*:1]; dαMeAlg = C[C@](CC=[*:3])(N[*:1])C(=O)[*:2]; NMeGly(cPent) = CN[C@H](C(=O)O)C1CCCC1; Ac4c(3,3-F2) = NC1(C(=O)O)CC(F)(F)C1; Hyp = O=C(O)[C@@H]1C[C@@H](O)CN1; NMeD = CN[C@@H](CC(=O)O)C(=O)O; NMeL = CN[C@@H](CC(C)C)C(=O)O; Morpholide = C1CN(*)CCO1; Sar = CNCC(=O)O

Experiments:
[1] = target: GDP-bound HRAS wild-type protein (Homo sapiens, UniProt P01112); experiment: Binding to HRAS by surface plasmon resonance (SPR), Single Cycle Kinetics; settings: for HRAS/KRAS (ratio of KD value for HRAS to KD value for KRAS) / HRAS/KRAS (ratio of KD value with respect to HRAS to KD value with respect to KRAS): SPR, GDP-bound HRAS wild-type protein vs GDP-bound KRAS wild-type protein; for HRAS/KRAS (ratio of KD value with respect to GDP-bound HRAS wild-type protein to KD value with respect to KRAS): SPR KD ratio HRAS/KRAS, class symbols
GDP-bound HRAS wild-type protein, sequence (P01112 whole entry): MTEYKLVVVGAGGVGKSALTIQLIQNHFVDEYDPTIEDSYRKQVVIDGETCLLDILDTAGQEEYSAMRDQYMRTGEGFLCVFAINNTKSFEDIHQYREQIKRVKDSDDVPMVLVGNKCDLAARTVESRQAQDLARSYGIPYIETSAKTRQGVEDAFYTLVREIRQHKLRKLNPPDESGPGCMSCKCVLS

[2] = target: GDP-bound NRAS wild-type protein (Homo sapiens, UniProt P01111); experiment: Binding to NRAS by surface plasmon resonance (SPR), Single Cycle Kinetics; settings: for NRAS/KRAS (ratio of KD value for NRAS to KD value for KRAS) / NRAS/KRAS (ratio of KD value with respect to NRAS to KD value with respect to KRAS): SPR, GDP-bound NRAS wild-type protein vs GDP-bound KRAS wild-type protein; for NRAS/KRAS (ratio of KD value with respect to GDP-bound NRAS wild-type protein to KD value with respect to KRAS): SPR KD ratio NRAS/KRAS, class symbols
GDP-bound NRAS wild-type protein, sequence (P01111 whole entry): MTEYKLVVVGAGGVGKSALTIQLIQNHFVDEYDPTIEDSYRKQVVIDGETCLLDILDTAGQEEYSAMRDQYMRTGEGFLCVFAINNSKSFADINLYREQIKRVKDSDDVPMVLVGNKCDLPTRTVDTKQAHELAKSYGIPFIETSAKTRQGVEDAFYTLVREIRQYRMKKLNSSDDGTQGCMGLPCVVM

[3] = target: GDP-bound KRAS wild-type protein (Homo sapiens, UniProt P01116); experiment: Binding to KRAS by surface plasmon resonance (SPR), Single Cycle Kinetics; settings: GDP-bound KRAS wild-type protein, read-out: KRAS KD
GDP-bound KRAS wild-type protein, sequence (P01116 whole entry): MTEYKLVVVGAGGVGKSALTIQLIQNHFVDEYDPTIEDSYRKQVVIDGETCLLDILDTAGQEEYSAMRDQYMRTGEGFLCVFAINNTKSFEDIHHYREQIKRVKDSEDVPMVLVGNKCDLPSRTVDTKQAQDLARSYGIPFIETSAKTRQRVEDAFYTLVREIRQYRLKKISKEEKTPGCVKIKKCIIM

[4] = SPR Single Cycle Kinetics, 1:1 binding model

Structure (SMILES)	HRAS/KRAS (ratio of KD value for HRAS to KD value for KRAS) [1]	NRAS/KRAS (ratio of KD value for NRAS to KD value for KRAS) [2]	Kd ([3]; SPR, Single Cycle Kinetics) [nM]	Kd [3, 4] [nM]	further results
CCCN(C)C(=O)[C@@H]1CC(=O)N(C)[C@@H](C2CC2)C(=O)N[C@@H]([C@@H](C)CC)C(=O)N(C)CC(=O)N(C)[C@H]2C/C=C\CCN(C2=O)[C@@H](Cc2ccc(C(F)(F)F)cc2)C(=O)N(C)CC(=O)N[C@@H](CCc2cc(F)c(C(F)(F)F)c(F)c2)C(=O)N2C[C@@H](C)C[C@H]2C(=O)NC2(CCC2)C(=O)N(C)[C@@H](C2CCCC2)C(=O)N1C [PP2081]	A (a compound having 10 or more and less than 20 is denoted as A)	A (a compound having 10 or more and less than 20 is denoted as A)	0.12		
CC[C@H](C)[C@@H]1NC(=O)[C@H](CC(C)C)N(C)C(=O)C[C@@H](C(=O)N2CCOCC2)N(C)C(=O)[C@H](C2CCCC2)N(C)C(=O)C2(CCC2)NC(=O)[C@@H]2C[C@@H](OCC(F)F)CN2C(=O)[C@H](CCc2cc(F)c(C(F)(F)F)c(F)c2)NC(=O)CN(C)C(=O)[C@H](Cc2ccc(C(F)(F)F)cc2)N2CCCC[C@@H](C2=O)N(C)C(=O)CN(C)C1=O [PP1002]	B (a compound having 3 or more and less than 10 is denoted as B)	B (a compound having 3 or more and less than 10 is denoted as B)	0.025		
CCC[C@H]1C(=O)N[C@@H]([C@@H](C)CC)C(=O)N(C)CC(=O)N(C)[C@H]2C/C=C\CCN(C2=O)[C@@H](Cc2ccc(C(F)(F)F)cc2)C(=O)N(C)CC(=O)N[C@@H](CCc2ccc(C(F)(F)F)c(Cl)c2)C(=O)N2CC3(CC3)C[C@H]2C(=O)NC2(CC(C)(C)C2)C(=O)N(C)[C@@H](CC(C)C)C(=O)N(C)[C@H](C(=O)N(C)C)CC(=O)N1C [PP2987]	A (a compound having 10 or more and less than 20 is denoted as A)	AA (a compound having 20 or more is denoted as AA)	0.66		
CCO[C@@H]1C[C@H]2C(=O)NC3(CCCC3)C(=O)N(C)[C@@H](C3CCCC3)C(=O)N(C)[C@H](C(=O)N(C)C)CC(=O)N(C)[C@@H](CC)C(=O)N[C@@H]([C@@H](C)CC)C(=O)N(C)CC(=O)N(C)[C@H]3C[C@@H](C)CCN(C3=O)[C@@H](Cc3ccc(C(F)(F)F)cc3)C(=O)N(C)CC(=O)N[C@@H](CCc3cc(F)c(C(F)(F)F)c(F)c3)C(=O)N2C1 [PP1022]	B (a compound having 3 or more and less than 10 is denoted as B)	C (A compound having a KD ratio of 0.1 or more and less than 3 is denoted as C)	0.036		
C=CCN1CC(=O)N(C)[C@H]2C/C=C\CCN(C2=O)[C@@H](Cc2ccc(C)cc2)C(=O)N(C)CC(=O)N[C@@H](CCc2ccc(C(F)(F)F)c(OC)c2)C(=O)N2C[C@H](OCC)C[C@H]2C(=O)NC2(CC(C)(C)C2)C(=O)N(C)[C@@H](C2CCCC2)C(=O)N(C)[C@H](C(=O)N(C)C)CC(=O)N(C)[C@@H](CCC)C(=O)N[C@@H]([C@@H](C)CC)C1=O [PP2098]	A (a compound having 10 or more and less than 20 is denoted as A)	A (a compound having 10 or more and less than 20 is denoted as A)	0.2		
CCO[C@@H]1C[C@H]2C(=O)NC3(CCC3)C(=O)N(C)[C@@H](C3CCCC3)C(=O)N(C)[C@H](C(=O)N(C)C)CC(=O)N(C)[C@@H](CC(C)C)C(=O)N[C@@H]([C@@H](C)CC)C(=O)N3CC[C@H]3C(=O)N(C)[C@H]3C[C@@H](C)CCN(C3=O)[C@@H](Cc3ccc(C(F)(F)F)cc3)C(=O)N(C)CC(=O)N[C@@H](CCc3cc(F)c(C(F)(F)F)c(F)c3)C(=O)N2C1 [PP1019]	B (a compound having 3 or more and less than 10 is denoted as B)	C (A compound having a KD ratio of 0.1 or more and less than 3 is denoted as C)	0.055		
CCO[C@@H]1C[C@H]2C(=O)NC3(CCC3)C(=O)N(C)[C@@H](C3CCCC3)C(=O)N(C)[C@H](C(=O)N3CCOCC3)CC(=O)N(C)[C@@H](CCOC)C(=O)N[C@@H]([C@@H](C)CC)C(=O)N(C)CC(=O)N(C)[C@H]3CCCCN(C3=O)[C@@H](Cc3ccc(C(F)(F)F)cc3)C(=O)N(C)CC(=O)N[C@@H](CCc3cc(F)c(C(F)(F)F)c(F)c3)C(=O)N2C1 [PP0720]				0.036	HRAS/KRAS (ratio of KD value with respect to HRAS to KD value with respect to KRAS) [1]: B (a compound having 3 or more and less than 10 is denoted as B); NRAS/KRAS (ratio of KD value with respect to NRAS to KD value with respect to KRAS) [2]: C (A compound having a KD ratio of 0.1 or more and less than 3 is denoted as C)
CCCN1C(=O)CN(C)C(=O)CN(C)C(=O)[C@H]([C@@H](C)CC)NC(=O)[C@@H]2CCCC=CC[C@@](C)(NC(=O)[C@@H]3C[C@@H](OCC)CN3C(=O)[C@H](CCc3cc(F)c(C(F)(F)F)c(F)c3)NC(=O)CN(C)C(=O)[C@@H]1Cc1ccc(C(F)(F)F)cc1)C(=O)N(C)[C@@H](C1CCCC1)C(=O)N(C)[C@H](C(=O)N1CCOCC1)CC(=O)N2C [PP0901] ([X29]I[Sar][Sar][NPrPhe(4-CF3)][Sar][hPhe(3,5-F2-4-CF3)][Hyp](Et)[dαMeAlg][NMeGly(cPent)][NMeD]-Morpholide; staple 1-9; lactam N-11)	B (a compound having 3 or more and less than 10 is denoted as B)	B (a compound having 3 or more and less than 10 is denoted as B)	3		
CCCN1C(=O)CN(C)C(=O)CN(C)C(=O)[C@H]([C@@H](C)CC)NC(=O)[C@H](CC(C)C)N(C)C(=O)C[C@@H](C(=O)N(C)C)N(C)C(=O)[C@H](C2CCCC2)N(C)C(=O)C2(CC(F)(F)C2)NC(=O)[C@@H]2CCCN2C(=O)[C@H](CCc2cc(F)c(C(F)(F)F)c(F)c2)NC(=O)CN(C)C(=O)[C@@H]1Cc1ccc(C(F)(F)F)cc1 [PP0745] ([NMeL]I[Sar][Sar][NPrPhe(4-CF3)][Sar][hPhe(3,5-F2-4-CF3)]P[Ac4c(3,3-F2)][NMeGly(cPent)][NMeD]-NMe2; lactam N-11)				0.029	HRAS/KRAS (ratio of KD value with respect to HRAS to KD value with respect to KRAS) [1]: C (A compound having a KD ratio of 0.1 or more and less than 3 is denoted as C); NRAS/KRAS (ratio of KD value with respect to NRAS to KD value with respect to KRAS) [2]: B (a compound having 3 or more and less than 10 is denoted as B)
CC[C@H](C)[C@@H]1NC(=O)[C@H](CC2CCCC2)N(C)C(=O)C[C@@H](C(=O)N(C)C)N(C)C(=O)[C@H](C2CCCC2)N(C)C(=O)C2(CCC2)NC(=O)[C@@H]2C[C@@H](F)CN2C(=O)[C@H](CCc2cc(F)c(C(F)(F)F)c(F)c2)NC(=O)CN(C)C(=O)[C@H](Cc2ccc(C(F)(F)F)cc2)N2CC/C=C\C[C@@H](C2=O)N(C)C(=O)CN(C)C1=O [PP1502]					HRAS/KRAS (ratio of KD value for HRAS to KD value for KRAS) ([1]; KD ratio class): A (a compound having 10 or more and less than 20 is denoted as A); NRAS/KRAS (ratio of KD value for NRAS to KD value for KRAS) ([2]; KD ratio class): A (a compound having 10 or more and less than 20 is denoted as A); Kd ([3]; SPR, Single Cycle Kinetics, 1:1 binding model): 0.038 nM
CCO[C@@H]1C[C@H]2C(=O)NC3(CC(C)(C)C3)C(=O)N(C)[C@@H](C3CCCC3)C(=O)N(C)[C@H](C(=O)N(C)CC)CC(=O)N(C)[C@@H](COC)C(=O)N[C@@H]([C@@H](C)CC)C(=O)N(C)CC(=O)N(C)[C@H]3C/C=C\CCN(C3=O)[C@@H](Cc3ccc(C(F)(F)F)cc3)C(=O)N(C)CC(=O)N[C@@H](CCc3ccc(Cl)c(Cl)c3)C(=O)N2C1 [PP2835]				0.19	HRAS/KRAS (ratio of KD value with respect to GDP-bound HRAS wild-type protein to KD value with respect to KRAS) [1]: A (a compound having 10 or more and less than 20 is denoted as A); NRAS/KRAS (ratio of KD value with respect to GDP-bound NRAS wild-type protein to KD value with respect to KRAS) [2]: A (a compound having 10 or more and less than 20 is denoted as A)
CC[C@H](C)[C@@H]1NC(=O)[C@@H]2CCC/C=C/c3ccc(cc3)C[C@@H](C(=O)N(C)CC(=O)N[C@@H](CCc3ccc(Cl)c(Cl)c3)C(=O)N3C[C@H](OC(C)C)C[C@H]3C(=O)NC3(CC(C)(C)C3)C(=O)N(C)[C@@H](C3CCCC3)C(=O)N(C)[C@H](C(=O)N(C)CC)CC(=O)N2C)N2CC/C=C\C[C@@H](C2=O)N(C)C(=O)CN(C)C1=O [PP2595]				0.17	HRAS/KRAS (ratio of KD value with respect to GDP-bound HRAS wild-type protein to KD value with respect to KRAS) [1]: B (a compound having 3 or more and less than 10 is denoted as B); NRAS/KRAS (ratio of KD value with respect to GDP-bound NRAS wild-type protein to KD value with respect to KRAS) [2]: A (a compound having 10 or more and less than 20 is denoted as A)
CC[C@H](C)[C@@H]1NC(=O)[C@@H]2CCCCCN2C(=O)C[C@@H](C(=O)N2CCOCC2)N(C)C(=O)[C@H](C2CCCC2)N(C)C(=O)C2(CCCC2)NC(=O)[C@@H]2CCCN2C(=O)[C@H](CCc2cc(F)c(C(F)(F)F)c(F)c2)NC(=O)CN(C)C(=O)[C@H](Cc2ccc(C(F)(F)F)cc2)N2CCCCC[C@@H](C2=O)N(C)C(=O)CN(C)C1=O [PP0521]				72	HRAS/KRAS (ratio of KD value with respect to HRAS to KD value with respect to KRAS) [1]: B (a compound having 3 or more and less than 10 is denoted as B); NRAS/KRAS (ratio of KD value with respect to NRAS to KD value with respect to KRAS) [2]: B (a compound having 3 or more and less than 10 is denoted as B)
